Measured values published in article PMC6321168, “Comparative Study on Excretive Characterization of Main Components in Herb Pair Notoginseng-Safflower and Single Herbs by LC–MS/MS” (Pharmaceutics, 2018).

Experiment: Urinary excretion study in rats after oral NS, SF or CNS (LC–MS/MS)
Assay type: in vivo
Settings: for concentration at 2 h / concentration at 4 h / concentration at 8 h / concentration at 12 h / concentration at 24 h / concentration at 36 h / concentration at 48 h / concentration at 72 h / concentration at 96 h / concentration at 120 h / concentration at 6 h: male, Sprague Dawley, rat, urine, oral; for Accumulative excretion amount / Accumulative excretion percentage / Excretion amount: rat urine
Procedure: The animal room was set at constant temperature of 20 ± 2 °C with humidity of 50 ± 20% and 12/12 h light/dark cycle.
Eighteen male rats were fasted for 12 h before starting the experiment. The rats were divided into three groups at random (n = 6) and received NS (60 mg/kg), SF (50 mg/kg), and NS (60 mg/kg) + SF (50 mg/kg), respectively, by oral gavage. The rats were placed in separate metabolic cages. The urine samples were collected at 0–2, 2–4, 4–6, 6–8, 8–12, 12–24, 24–36, 36–48, 48–72, 72–96, and 96–120 h. The feces samples were collected at 0–4, 4–8, 8–12, 12–24, 24–36, 36–48, 48–72, 72–96, and 96–120 h. The urine volume was recorded and the dry feces were measured for each collection period. Samples were stored at −80 °C until analysis.
An aliquot of 200 μL urine sample was mixed with 10 μL of IS and evaporated to dryness with a ZLS-2 vacuum centrifugal concentrator (Herexi Co., Ltd., Changsha, Hunan, China). The residue was reconstituted in 100 μL of 50% methanol vortexed for 2 min and centrifuged at 12,000 rpm for 15 min. Finally, a 1 μL aliquot was injected for LC–MS analysis.
Ultra fast liquid chromatography (UFLC) analysis was performed using a Shimadzu UFLC system (DGU-20A3R Degasser; LC-20AD pump; SIL-20AXR Autosampler; CTO-20AC Column Oven) (Nakagyo-Ku, Koyoto, Japan). […] Because of the different endogenous substances in the urine and feces samples, different elution gradients were used to alleviate the matrix effects for the analytes.
The mass spectrometric detection was performed on an ABSciex 4500 Qtrap mass spectrometer (ABSciex, Foster City, CA, USA) equipped with a negative electrospray ionization (ESI) interface using multiple reaction monitoring (MRM). The MS parameters were optimized under the selected ion monitoring conditions as follows: curtain gas, 35 psi; ionspray voltage, 4500 V; turbo gas temperature, 450 °C; GS1, 45 psi; GS2, 45 psi. All data were acquired and analyzed by Analyst software (Versions 1.6.2) from ABSciex.
The accumulative excretion percentage was calculated for each analyte as follows. Excretion at time (t) = [concentration of the analyte (ng/mL) at t] × total urine (or feces) volume (mL) at t. The cumulative excretion up to time t (mg) was expressed as a percent (%) cumulative excretion by dividing by the total amount of the analyte ingested (mg): % Cumulative Excretion = 100 × (Σt excretiont) total ingested.

concentration at 2 h (60 mg/kg, oral NS 60 mg/kg, 2 h): 289 ± 689 ng/mL | concentration at 4 h (60 mg/kg, oral NS 60 mg/kg, 4 h): 91 ± 119 ng/mL | concentration at 8 h (60 mg/kg, oral NS 60 mg/kg, 8 h): 40 ± 26 ng/mL | concentration at 12 h (60 mg/kg, oral NS 60 mg/kg, 12 h): 33 ± 24 ng/mL | concentration at 24 h (60 mg/kg, oral NS 60 mg/kg, 24 h): 17 ± 34 ng/mL | concentration at 36 h (60 mg/kg, oral NS 60 mg/kg, 36 h): 15 ± 23 ng/mL | concentration at 48 h (60 mg/kg, oral NS 60 mg/kg, 48 h): 13 ± 24 ng/mL | concentration at 72 h (60 mg/kg, oral NS 60 mg/kg, 72 h): 17 ± 37 ng/mL | concentration at 96 h (60 mg/kg, oral NS 60 mg/kg, 96 h): 7 ± 13 ng/mL | concentration at 120 h (60 mg/kg, oral NS 60 mg/kg, 120 h): 4 ± 8 ng/mL | concentration at 2 h (oral CNS 110 mg/kg, 2 h): 86 ± 88 ng/mL | concentration at 4 h (oral CNS 110 mg/kg, 4 h): 70 ± 89 ng/mL | concentration at 6 h (oral CNS 110 mg/kg, 6 h): 39 ± 27 ng/mL | concentration at 8 h (oral CNS 110 mg/kg, 8 h): 41 ± 35 ng/mL | concentration at 12 h (oral CNS 110 mg/kg, 12 h): 35 ± 41 ng/mL | concentration at 24 h (oral CNS 110 mg/kg, 24 h): 369 ± 963 ng/mL | concentration at 36 h (oral CNS 110 mg/kg, 36 h): 24 ± 38 ng/mL | concentration at 48 h (oral CNS 110 mg/kg, 48 h): 6 ± 7 ng/mL | concentration at 72 h (oral CNS 110 mg/kg, 72 h): 5 ± 7 ng/mL | concentration at 96 h (oral CNS 110 mg/kg, 96 h): 3 ± 5 ng/mL | concentration at 120 h (oral CNS 110 mg/kg, 120 h): 4 ± 8 ng/mL | concentration at 6 h (oral NS 60 mg/kg, 6 h): 32 ± 30 ng/mL | Accumulative excretion amount (oral CNS 110 mg/kg, 2 h): 0.133 ± 0.062 µg | Accumulative excretion percentage (oral CNS 110 mg/kg, 2 h): 0.028±0.013% | Accumulative excretion amount (oral CNS 110 mg/kg, 4 h): 0.193 ± 0.131 µg | Accumulative excretion percentage (oral CNS 110 mg/kg, 4 h): 0.041±0.028% | Excretion amount (oral CNS 110 mg/kg, 4 h): 0.100 ± 0.090 µg | Accumulative excretion amount (oral CNS 110 mg/kg, 6 h): 0.231 ± 0.118 µg | Accumulative excretion percentage (oral CNS 110 mg/kg, 6 h): 0.049± 0.025% | Excretion amount (oral CNS 110 mg/kg, 6 h): 0.064 ± 0.030 µg | Accumulative excretion amount (oral CNS 110 mg/kg, 8 h): 0.289 ± 0.121 µg | Accumulative excretion percentage (oral CNS 110 mg/kg, 8 h): 0.061±0.026% | Excretion amount (oral CNS 110 mg/kg, 8 h): 0.072 ± 0.033 µg | Accumulative excretion amount (oral CNS 110 mg/kg, 12 h): 0.324 ± 0.110 µg | Accumulative excretion percentage (oral CNS 110 mg/kg, 12 h): 0.069±0.023% | Excretion amount (oral CNS 110 mg/kg, 12 h): 0.035 ± 0.015 µg | Accumulative excretion amount (oral CNS 110 mg/kg, 24 h): 0.381 ± 0.153 µg | Accumulative excretion percentage (oral CNS 110 mg/kg, 24 h): 0.081±0.032% | Excretion amount (oral CNS 110 mg/kg, 24 h): 0.058 ± 0.054 µg | Accumulative excretion amount (oral CNS 110 mg/kg, 36 h): 0.411 ± 0.177 µg | Accumulative excretion percentage (oral CNS 110 mg/kg, 36 h): 0.087±0.037% | Excretion amount (oral CNS 110 mg/kg, 36 h): 0.030 ± 0.037 µg | Accumulative excretion amount (oral CNS 110 mg/kg, 48 h): 0.447 ± 0.206 µg | Accumulative excretion percentage (oral CNS 110 mg/kg, 48 h): 0.095±0.044% | Excretion amount (oral CNS 110 mg/kg, 48 h): 0.03 ± 0.038 µg | Accumulative excretion amount (oral CNS 110 mg/kg, 72 h): 0.460 ± 0.207 µg | Accumulative excretion percentage (oral CNS 110 mg/kg, 72 h): 0.097±0.044% | Excretion amount (oral CNS 110 mg/kg, 72 h): 0.013 ± 0.017 µg | Accumulative excretion amount (oral CNS 110 mg/kg, 96 h): 0.468 ± 0.217 µg | Accumulative excretion percentage (oral CNS 110 mg/kg, 96 h): 0.099±0.046% | Excretion amount (oral CNS 110 mg/kg, 96 h): 0.008 ± 0.012 µg | Accumulative excretion amount (oral CNS 110 mg/kg, 120 h): 0.472 ± 0.219 µg | Accumulative excretion percentage (oral CNS 110 mg/kg, 120 h): 0.100±0.046% | Excretion amount (oral CNS 110 mg/kg, 120 h): 0.004 ± 0.005 µg | Accumulative excretion amount (oral NS 60 mg/kg, 2 h): 0.304 ± 0.161 µg | Accumulative excretion percentage (oral NS 60 mg/kg, 2 h): 0.064±0.030% | Excretion amount (oral NS 60 mg/kg, 2 h): 0.304 ± 0.161 µg | Accumulative excretion amount (oral NS 60 mg/kg, 4 h): 0.390 ± 0.199 µg | Accumulative excretion percentage (oral NS 60 mg/kg, 4 h): 0.072±0.037% | Excretion amount (oral NS 60 mg/kg, 4 h): 0.129 ± 0.051 µg | Accumulative excretion amount (oral NS 60 mg/kg, 6 h): 0.509 ± 0.225 µg | Accumulative excretion percentage (oral NS 60 mg/kg, 6 h): 0.096±0.042% | Excretion amount (oral NS 60 mg/kg, 6 h): 0.143 ± 0.125 µg | Accumulative excretion amount (oral NS 60 mg/kg, 8 h): 0.625 ± 0.321 µg | Accumulative excretion percentage (oral NS 60 mg/kg, 8 h): 0.127±0.059% | Excretion amount (oral NS 60 mg/kg, 8 h): 0.173 ± 0.121 µg | Accumulative excretion amount (oral NS 60 mg/kg, 12 h): 0.721 ± 0.406 µg | Accumulative excretion percentage (oral NS 60 mg/kg, 12 h): 0.138±0.075% | Excretion amount (oral NS 60 mg/kg, 12 h): 0.096 ± 0.087 µg | Accumulative excretion amount (oral NS 60 mg/kg, 24 h): 0.745 ± 0.403 µg | Accumulative excretion percentage (oral NS 60 mg/kg, 24 h): 0.149±0.074% | Excretion amount (oral NS 60 mg/kg, 24 h): 0.024 ± 0.015 µg | Accumulative excretion amount (oral NS 60 mg/kg, 36 h): 0.782 ± 0.377 µg | Accumulative excretion percentage (oral NS 60 mg/kg, 36 h): 0.141±0.070% | Excretion amount (oral NS 60 mg/kg, 36 h): 0.044 ± 0.046 µg | Accumulative excretion amount (oral NS 60 mg/kg, 48 h): 0.802 ± 0.380 µg | Accumulative excretion percentage (oral NS 60 mg/kg, 48 h): 0.152±0.070% | Excretion amount (oral NS 60 mg/kg, 48 h): 0.020 ± 0.022 µg | Accumulative excretion amount (oral NS 60 mg/kg, 72 h): 0.809 ± 0.391 µg | Accumulative excretion percentage (oral NS 60 mg/kg, 72 h): 0.156±0.072% | Excretion amount (oral NS 60 mg/kg, 72 h): 0.007 ± 0.017 µg | Accumulative excretion amount (oral NS 60 mg/kg, 96 h): 0.814 ± 0.399 µg | Accumulative excretion percentage (oral NS 60 mg/kg, 96 h): 0.154±0.074% | Excretion amount (oral NS 60 mg/kg, 96 h): 0.005 ± 0.010 µg | Accumulative excretion amount (oral NS 60 mg/kg, 120 h): 0.819 ± 0.408 µg | Accumulative excretion percentage (oral NS 60 mg/kg, 120 h): 0.154±0.075% | Excretion amount (oral NS 60 mg/kg, 120 h): 0.004 ± 0.010 µg
Compound: CC(C)=CCC[C@](C)(O[C@@H]1O[C@H](CO)[C@@H](O)[C@H](O)[C@H]1O)[C@H]1CC[C@]2(C)[C@@H]1[C@H](O)C[C@@H]1[C@@]3(C)CC[C@H](O)C(C)(C)[C@@H]3[C@@H](O[C@@H]3O[C@H](CO)[C@@H](O)[C@H](O)[C@H]3O[C@@H]3O[C@@H](C)[C@H](O)[C@@H](O)[C@H]3O)C[C@]12C [ginsenoside Re]
